What was measured:
patients with NASH = experiment: Example 4: EPA-E in NASH patients grouped by adiponectin gene SNP276 genotype, one year; assay type: in vivo, human; conditions: for NAS scores (Kleiner et al.): 900 mg twice a day, one year
Experimental: There are three genotypes for the adiponectin gene SNP276, the T/T, G/T and G/G genotypes, and humans with the G/G genotype are said to have a lower blood adiponectin level than those with the T/T genotype.
To a group of patients with NASH having the adiponectin gene SNP276 which is of the G/G genotype and a group of patients with NASH having the adiponectin gene SNP276 which is of the genotype other than the G/G genotype (each group comprising 15 cases), 900 mg of EPA-E is administered twice a day for one year. After the lapse of one year, therapeutic effects are evaluated by the NAS scoring of Kleiner et al. In both of the group of patients with NASH having the G/G genotype and the group of patients with NASH having the genotype other than the G/G genotype, NAS scores are improved owing to the administration of the drug for one year.

[1] = tested on: patients with NASH having liver fibrosis; experiment: Example 3: EPA-E with dietary restriction and exercise therapy in NASH patients having liver fibrosis, one year; assay type: in vivo, human; conditions: one year after start of treatment
Experimental: Patients with NASH having liver fibrosis, that is to say, subjects suffering from fibrosis classified to stage 1 or 2 according to the fibrosis staging of Brunt et al. are collected (15 cases). Dietary restriction and exercise therapy are conducted so that the blood OA/SA ratio as monthly measured may be reduced in value from that measured previously, while 900 mg of EPA-E is administered twice a day, so as to do follow-up for one year. To the subjects in whom no change is recognized in OA/SA ratio, 900 mg of EPA-E is administered thrice a day.
The subjects in whom the reduction ratio of the OA/SA ratio in one month after the start of the administration is not lower than 5% are included in group A, while the subjects in whom the reduction ratio of the OA/SA ratio in one month after the start of the administration is lower than […] are included in group B. The reduction rate of the OA/SA ratio in one month is calculated by the equation: reduction rate (%)=[(OA/SA ratio before start of administration)−(OA/SA ratio one month after start of administration)]/OA/SA ratio before start of administration×100.

NASH = conditions: 2700 mg/day for 12 months; Non-Patent Literature 3; cited from earlier work
[2] = tested on: subjects affirmatively diagnosed as having NASH; experiment: Example 1: EPA-E group vs placebo control group in NASH subjects, one year; assay type: in vivo, human
Experimental: Subjects affirmatively diagnosed as having NASH are divided into two groups (each comprising 15 cases), namely the EPA-E group and the control group, then the groups are caused to take EPADEL S900 (containing 900 mg of EPA-E) and a placebo, respectively, twice a day. Doses are modified as appropriate to the subjects' conditions. Following the method described in American Journal of Gastroenterology 2001, Vol. 96, pp. 2711-2717 with respect to the criteria for diagnosing subjects, monitoring, histological testing, statistic analysis, and so forth, blood chemistry tests on ALT, AST, and the like are performed and the plasma fatty acid composition is determined over a dosage period of one year, and liver biopsy is conducted at the end of dosage, so as to make histological evaluations.
Of the EPA-E group, 15 cases are sorted into two groups, one (“effective” group) comprising the cases in which the score in accordance with the method of Brunt et al. is changed after the administration of the drug from that before the administration by 1 or 2, and the other (“ineffective” group) comprising the cases in which the score after the administration is not changed from that before the administration, and analysis is conducted on the change in the plasma fatty acid composition as determined over the dosage period of one year. The OA/SA ratio before the administration is not different between the effective group and the ineffective group. […] The reduction rate of the OA/SA ratio in two months is calculated by the equation: reduction rate (%)=[(OA/SA ratio before start of administration)−(OA/SA ratio two months after start of administration)]/OA/SA ratio before start of administration×100.

[3] = EPADEL S900 (900 mg EPA-E) twice a day, one year, vs before treatment and vs control group
[4] = effective group (Brunt score changed by 1 or 2)
[5] = ineffective group (Brunt score not changed)

CC/C=C\C/C=C\C/C=C\C/C=C\C/C=C\CCCC(=O)OCC [EPA-E, ethyl icosapentate ester]
degree of improvement in NAS score (patients with NASH; G/G genotype group vs other genotype group): higher in the group of patients with NASH having the G/G genotype
NAS scores (Kleiner et al.) (patients with NASH; G/G genotype group): improved
NAS scores (Kleiner et al.) (patients with NASH; genotype other than G/G): improved
fibrosis, staging of Brunt et al., by liver biopsy ([1]; group A (OA/SA reduction in one month not lower than 5%)): ameliorated from stage 2 to stage 1 or non-fibrotic stage, or again, from stage 1 to non-fibrotic stage
amelioration of fibrosis ([1]; group B (OA/SA reduction in one month lower than 1%)): slight
NASH (AST, ALT, inflammatory cytokines, oxidative stress markers, liver biopsy) (NASH): amelioration of NASH
mean value of ALT [2, 3]: reduced from those before treatment more markedly in comparison with the control group
mean value of AST [2, 3]: reduced from those before treatment more markedly in comparison with the control group
TIMP-1 [2, 4]: gradually reduced in value
hyaluronic acid [2, 4]: gradually reduced in value
type IV collagen [2, 4]: gradually reduced in value
reduction rate of the OA/SA ratio in two months ([2]; effective group compared with ineffective group): high in the effective group as compared with the ineffective group
plasma OA/SA ratio ([2]; for two months after start of administration, effective and ineffective groups): tends to be reduced in both groups
plasma OA/SA ratio ([2]; from the lapse of two months on, effective and ineffective groups): tends more or less to be reduced
TIMP-1 [2, 5]: hardly changed in value
hyaluronic acid [2, 5]: hardly changed in value
type IV collagen [2, 5]: hardly changed in value
average fibrosis, fibrosis staging of Brunt et al. ([2]; liver biopsy at the end of one-year dosage): from stage 2 to stage 1
plasma OA/SA ratio ([2]; two months after start of administration, effective group vs ineffective group): lower in value than in the ineffective group
